The source of these data is ChEMBL document CHEMBL3779894, “Synthesis and in Vitro Screening of New Series of 2,6-Dipeptidyl-anthraquinones: Influence of Side Chain Length on HIV-1 Nucleocapsid Inhibitors” (J Med Chem, 2016).

pIC50: −log10 of the molar value. The source made the active and inactive calls. The rule behind the calls is not given here.

Test [1] can be described thus: Inhibition of recombinant full length HIV-1 nucleocapsid assessed as inhibition of nucleocapsid-mediated melting of cTAR DNA measured 3 times with 1 min interval by FRET based assay. Further details: species or system Human immunodeficiency virus 1.
The nature of test [2]: Inhibition of recombinant full length HIV-1 nucleocapsid assessed as inhibition of TAR RNA/cTAR DNA annealing preincubated with oligonucleotides for 15 mins followed by nucleocapsid addition measured after 15 mins by NAME assay. Also on record: species or system Human immunodeficiency virus 1.
Test [3] deals with Human immunodeficiency virus 1. Description: Inhibition of recombinant full length HIV-1 nucleocapsid assessed as inhibition of TAR RNA /cTAR DNA annealing at 50 to 100 uM preincubated with oligonucleotides for 15 mins followed by nucleocapsid addition measured after 15 mins by NAME assay.
For test [4], the system named is Human immunodeficiency virus 1. Briefly: Binding affinity to HIV-1 29-mer TAR RNA assessed as increase in melting temperature at 10 uM by fluorescence quenching assay.
Test [5] has as its system Human immunodeficiency virus 1. Description: Binding affinity to HIV-1 cTAR DNA assessed as increase in melting temperature at 10 uM by fluorescence quenching assay.
Test [6] deals with Human immunodeficiency virus 1. Description: Binding affinity to HIV-1 cTAR DNA-29-mer TAR RNA duplex assessed as increase in melting temperature at 10 uM by fluorescence quenching assay.
Test [7] can be described thus: Inhibition of recombinant full length HIV-1 nucleocapsid assessed as inhibition of nucleocapsid-mediated melting of TAR RNA measured 3 times with 1 min interval by FRET based assay. Further details: species or system Human immunodeficiency virus 1.
The test system of test [8] is Human immunodeficiency virus 1. Description: Inhibition of recombinant full length HIV-1 nucleocapsid assessed as inhibition of TAR RNA/cTAR DNA annealing upto 100 uM preincubated with oligonucleotides for 15 mins followed by nucleocapsid addition measured after 15 mins by NAME assay.
Test [9] relates to Human immunodeficiency virus 1. Briefly: Selectivity index, ratio of melting temperature for HIV-1 29-mer TAR RNA to HIV-1 cTAR DNA.
Test [10] relates to Human immunodeficiency virus 1. Briefly: Binding affinity to HIV-1 29-mer TAR RNA assessed as 3:1 compound-RNA complex formation at 10 uM by ESI-MS analysis.
Test [11] deals with Human immunodeficiency virus 1. Description: Binding affinity to HIV-1 cTAR DNA assessed as 4:1 […] complex formation at 10 uM by ESI-MS analysis.
Test [12] has as its system Human immunodeficiency virus 1. Briefly: Binding affinity to HIV-1 29-mer TAR RNA assessed as 1:1 compound-RNA complex formation at 10 uM by ESI-MS analysis.
For test [13], the system named is Human immunodeficiency virus 1. Description: Binding affinity to HIV-1 cTAR DNA assessed as 2:1 […] complex formation at 10 uM by ESI-MS analysis.
Test [14] relates to Human immunodeficiency virus 1. Briefly: Inhibition of recombinant full length HIV-1 nucleocapsid assessed as inhibition of TAR RNA /cTAR DNA annealing at 20 to 50 uM preincubated with oligonucleotides for 15 mins followed by nucleocapsid addition measured after 15 mins by NAME assay.
Test [15] concerns Human immunodeficiency virus 1. Briefly: Binding affinity to HIV-1 cTAR DNA at 10 uM by ESI-MS analysis.
The test system of test [16] is Human immunodeficiency virus 1. Description: Binding affinity to HIV-1 29-mer TAR RNA at 10 uM by ESI-MS analysis.

`NCC(N)C(=O)NCC(=O)Nc1ccc2c(c1)C(=O)c1ccc(NC(=O)CNC(=O)C(N)CN)cc1C2=O` (centres undefined): the pIC50 is 5.42 in test [1], 3.99 in test [2] and 5.37 in [7]. For the same compound, the inhibition result in test [3] was “Active”. The outcome in test [4], in test [5] and in test [6] was Active.

In the case of `NCCC(=O)NCC(=O)Nc1ccc2c(c1)C(=O)c1ccc(NC(=O)CNC(=O)CCN)cc1C2=O`, the negative logarithm of the IC50 (pIC50) in [1] was 5.39; in test [2] it was under 4.00; in [7] it was 5.19. In test [3], the inhibition entry is “Active”. Further, the result in [4], in test [5] and in test [6] was Active.

As for `C[C@H](NC(=O)C(N)CCN)C(=O)Nc1ccc2c(c1)C(=O)c1ccc(NC(=O)[C@H](C)NC(=O)C(N)CCN)cc1C2=O` (some centres undefined), the pIC50 is 5.37 in test [1], under 4.00 in [2] and 5.16 in [7]. Further, the inhibition entry in test [8] was “inactive”. The outcome in [4], in test [5] and in [6] was Active. In test [9], the Ratio is 0.5.

Regarding `C[C@H](NC(=O)C(N)CCCN)C(=O)Nc1ccc2c(c1)C(=O)c1ccc(NC(=O)[C@H](C)NC(=O)C(N)CCCN)cc1C2=O` (some centres undefined), the pIC50 in test [1] was 5.71; in test [2], 4.31; in [7] it was 5.31. For the same compound, the inhibition entry in test [3] was “Active”. In addition, the outcome in test [10], in [11], in test [4], in [5] and in test [6] was Active. In [9], the Ratio stood at 0.58.

In the case of `C[C@H](NC(=O)C1CCNCC1)C(=O)Nc1ccc2c(c1)C(=O)c1ccc(NC(=O)[C@H](C)NC(=O)C3CCNCC3)cc1C2=O`, the pIC50 in test [1] was 4.92; in test [7] it was 4.68. Moreover, the inhibition entry in test [8] was “inactive”. Also, the result in [12] and in test [13] was Active.

For `Nc1ccc(CC(N)C(=O)NCC(=O)Nc2ccc3c(c2)C(=O)c2ccc(NC(=O)CNC(=O)C(N)Cc4ccc(N)cc4)cc2C3=O)cc1` (centres undefined), the values for the negative logarithm of the IC50 (pIC50) in [1], in test [2] and in test [7] were 5.11, under 4.00 and 5.11, respectively. Moreover, in test [8], the inhibition entry is “inactive”. Moreover, the outcome in test [4], in test [5] and in [6] was inactive.

`NC1(C(=O)NCC(=O)Nc2ccc3c(c2)C(=O)c2ccc(NC(=O)CNC(=O)C4(N)CCNCC4)cc2C3=O)CCNCC1`: the negative-log IC50 (pIC50) is 5.29 in test [1], under 4.00 in [2] and 5.11 in test [7]. The inhibition result in [3] was “Active”. Moreover, the result in [4], in test [5] and in [6] was Active.

Take `C[C@H](NC(=O)C(N)CN)C(=O)Nc1ccc2c(c1)C(=O)c1ccc(NC(=O)[C@H](C)NC(=O)C(N)CN)cc1C2=O` (some centres undefined): the negative-log IC50 (pIC50) is 4.36 in test [1] and 4.17 in [7]. Besides, in test [8], the inhibition entry is “inactive”. Also, the result in test [4] and in test [5] was inactive.

As for `NC[C@H]1CC[C@H](C(=O)NCC(=O)Nc2ccc3c(c2)C(=O)c2ccc(NC(=O)CNC(=O)[C@H]4CC[C@H](CN)CC4)cc2C3=O)CC1`, the negative logarithm of the IC50 (pIC50) is 5.01 in test [1] and 4.95 in test [7]. The outcome in test [4], in test [5] and in [6] was inactive.

Regarding `C[C@H](NC(=O)C(N)CCCCN)C(=O)Nc1ccc2c(c1)C(=O)c1ccc(NC(=O)[C@H](C)NC(=O)C(N)CCCCN)cc1C2=O` (some centres undefined), the values for the pIC50 in [1], in [2] and in [7] were 5.57, 4.09 and 5.18, respectively. Besides, the inhibition entry in test [3] was “Active”. Also, the outcome in [10], in test [11], in [4], in test [5] and in [6] was Active. Further, the Ratio in test [9] was 0.56.

Consider `C[C@H](NC(=O)C1(N)CCNCC1)C(=O)Nc1ccc2c(c1)C(=O)c1ccc(NC(=O)[C@H](C)NC(=O)C3(N)CCNCC3)cc1C2=O`, for which the figures for the pIC50 in test [1] and in test [7] were 4.84 and 4.40, respectively. The inhibition result in test [8] is “inactive”.

Regarding `O=C(CNC(=O)C1CCNCC1)Nc1ccc2c(c1)C(=O)c1ccc(NC(=O)CNC(=O)C3CCNCC3)cc1C2=O`, the pIC50 in test [1] and in [7] was 4.97 throughout. Further, in test [8], the inhibition result was “inactive”. The outcome in [12], in test [13], in test [4], in test [5] and in test [6] was Active.

On to `C[C@H](NC(=O)C(N)Cc1ccc(N)cc1)C(=O)Nc1ccc2c(c1)C(=O)c1ccc(NC(=O)[C@H](C)NC(=O)C(N)Cc3ccc(N)cc3)cc1C2=O` (some centres undefined), for which the pIC50 in test [1] is 5.12; in test [7], 5.14. The inhibition result in test [8] was “inactive”.

`NCCCC(N)C(=O)NCC(=O)Nc1ccc2c(c1)C(=O)c1ccc(NC(=O)CNC(=O)C(N)CCCN)cc1C2=O` (centres undefined): the negative logarithm of the IC50 (pIC50) in test [1] was 5.74; in test [2] it was 4.27; in test [7] it was 5.58. Besides, in test [14], the inhibition entry was “Active”. The result in test [10], in [15], in test [4], in test [5] and in test [6] was Active. Also, in [9], the Ratio came to 0.72.

On to `NCCCCC(N)C(=O)NCC(=O)Nc1ccc2c(c1)C(=O)c1ccc(NC(=O)CNC(=O)C(N)CCCCN)cc1C2=O` (centres undefined), for which the pIC50 in [1] is 5.95; in [2] it was 4.63; in test [7] it was 5.67. Further, the inhibition entry in test [14] is “Active”. In addition, the result in [15], in test [16], in test [4], in [5] and in test [6] was Active. Further, the Ratio in test [9] came to 0.72.

For the compound `C[C@H](NC(=O)CCN)C(=O)Nc1ccc2c(c1)C(=O)c1ccc(NC(=O)[C@H](C)NC(=O)CCN)cc1C2=O`, the pIC50 was 4.90 in test [1] and 4.40 in [7]. In addition, the inhibition result in test [8] is “inactive”.

As for `C[C@H](NC(=O)[C@H]1CC[C@H](CN)CC1)C(=O)Nc1ccc2c(c1)C(=O)c1ccc(NC(=O)[C@H](C)NC(=O)[C@H]3CC[C@H](CN)CC3)cc1C2=O`, the pIC50 in [1] and in test [7] was 4.83 each time. In addition, in test [8], the inhibition entry is “inactive”.

For `NCCC(N)C(=O)NCC(=O)Nc1ccc2c(c1)C(=O)c1ccc(NC(=O)CNC(=O)C(N)CCN)cc1C2=O` (centres undefined), the negative logarithm of the IC50 (pIC50) was 5.34 in test [1], 4.09 in test [2] and 5.41 in [7]. Also, the inhibition entry in [3] is “Active”. Also, the result in [4], in [5] and in test [6] was Active. Also, the Ratio in [9] is 0.97.

The term pIC50 denotes −log10 of the IC50, conventionally taken in molar units.
